Experiments:
[1] = molecular target: TYK2 (Homo sapiens (Human), UniProt P29597); assay: Tyk2 radioactive kinase assay; format: biochemical; conditions: ATP 10 μM
Method in brief: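 Recombinant human TYK2 (Invitrogen) was mixed with 20 μM peptide substrate in a buffer of 20 mM Hepes pH 7.5, 10 mM MgCl2, 1 mM EGTA, 0.02% Brij35, 0.02 mg/mL BSA, 0.1 mM […], 2 mM DTT and 1% DMSO, and compounds in DMSO were added. Adding ^33P-ATP (10 μM ATP) started the reaction, which ran 120 min at room temperature. Mixtures were then spotted onto P81 ion-exchange paper, washed thoroughly in 0.75% phosphoric acid, and counted for radioactivity.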

[2] = molecular target: JAK2 (Homo sapiens (Human), UniProt O60674); assay: JAK2 radioactive kinase assay; format: biochemical; conditions: ATP 10 μM
JAK2, sequence (O60674 whole entry): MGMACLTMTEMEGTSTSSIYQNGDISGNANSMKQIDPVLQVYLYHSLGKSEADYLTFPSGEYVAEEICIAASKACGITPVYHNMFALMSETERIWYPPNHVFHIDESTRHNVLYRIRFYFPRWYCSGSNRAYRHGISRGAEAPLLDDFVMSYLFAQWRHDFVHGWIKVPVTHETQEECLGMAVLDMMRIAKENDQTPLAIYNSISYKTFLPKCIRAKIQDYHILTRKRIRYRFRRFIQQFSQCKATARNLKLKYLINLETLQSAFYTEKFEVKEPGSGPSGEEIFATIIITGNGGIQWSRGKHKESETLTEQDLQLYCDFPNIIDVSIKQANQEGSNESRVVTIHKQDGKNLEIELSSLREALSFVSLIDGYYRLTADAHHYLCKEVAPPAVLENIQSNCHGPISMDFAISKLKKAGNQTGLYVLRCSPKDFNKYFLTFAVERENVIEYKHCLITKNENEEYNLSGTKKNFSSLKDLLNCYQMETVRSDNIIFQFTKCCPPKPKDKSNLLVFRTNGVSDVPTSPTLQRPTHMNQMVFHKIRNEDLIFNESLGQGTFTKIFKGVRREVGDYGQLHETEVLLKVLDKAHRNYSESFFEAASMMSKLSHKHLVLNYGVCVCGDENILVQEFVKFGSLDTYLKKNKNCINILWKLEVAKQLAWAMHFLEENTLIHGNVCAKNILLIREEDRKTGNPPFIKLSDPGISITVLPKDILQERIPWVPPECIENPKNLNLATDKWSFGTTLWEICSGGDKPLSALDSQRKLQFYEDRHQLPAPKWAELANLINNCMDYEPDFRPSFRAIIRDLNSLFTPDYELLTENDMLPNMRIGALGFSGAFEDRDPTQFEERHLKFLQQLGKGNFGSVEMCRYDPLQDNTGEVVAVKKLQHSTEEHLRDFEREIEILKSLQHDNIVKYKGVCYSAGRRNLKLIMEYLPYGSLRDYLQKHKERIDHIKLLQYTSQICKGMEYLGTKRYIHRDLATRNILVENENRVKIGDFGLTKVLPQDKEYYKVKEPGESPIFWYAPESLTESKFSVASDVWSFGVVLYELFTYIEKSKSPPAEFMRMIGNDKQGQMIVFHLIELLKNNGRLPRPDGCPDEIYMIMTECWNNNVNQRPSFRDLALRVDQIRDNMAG
Method in brief: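 Radiometric assay in Hepes pH 7.5, MgCl2, EGTA, Brij35, BSA, DTT, 1% DMSO, with 10 μM [33P]ATP, 120 min at room temp; P81 paper capture and counting. […]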

[3] = test system: Tyk2-pSTAT4 (IL-12 induced pSTAT4); assay: IL-12 induced pSTAT4 in human PBMC; format: cell-based; conditions: Homo sapiens, PBMC, 0.5 h, 1.7 ng/mL IL-12, 30 minutes
Method in brief: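 Thawed human PBMC (200,000 cells/well, serum-containing medium) preincubated with compound 1 hr at 37 C, 0.1% DMSO final. Stimulated with 1.7 ng/mL IL-12 (final) for 30 minutes; pSTAT4 and total STAT4 in lysates measured by MSD immunoassay.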

[4] = test system: JAK2-pSTAT5 (GM-CSF induced pSTAT5); assay: GM-CSF induced pSTAT5 in human PBMC; format: cell-based; conditions: 5 ng/mL GM-CSF
Method in brief: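 Thawed human PBMC, 200,000 per well in serum-containing medium, were preincubated 1 hr at 37 C with compound in 0.1% DMSO. GM-CSF at 5 ng/mL final was added for 20 minutes, then pSTAT5 and total STAT5 in lysates were measured by MSD immunoassay.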

TYK2, sequence (P29597 whole entry): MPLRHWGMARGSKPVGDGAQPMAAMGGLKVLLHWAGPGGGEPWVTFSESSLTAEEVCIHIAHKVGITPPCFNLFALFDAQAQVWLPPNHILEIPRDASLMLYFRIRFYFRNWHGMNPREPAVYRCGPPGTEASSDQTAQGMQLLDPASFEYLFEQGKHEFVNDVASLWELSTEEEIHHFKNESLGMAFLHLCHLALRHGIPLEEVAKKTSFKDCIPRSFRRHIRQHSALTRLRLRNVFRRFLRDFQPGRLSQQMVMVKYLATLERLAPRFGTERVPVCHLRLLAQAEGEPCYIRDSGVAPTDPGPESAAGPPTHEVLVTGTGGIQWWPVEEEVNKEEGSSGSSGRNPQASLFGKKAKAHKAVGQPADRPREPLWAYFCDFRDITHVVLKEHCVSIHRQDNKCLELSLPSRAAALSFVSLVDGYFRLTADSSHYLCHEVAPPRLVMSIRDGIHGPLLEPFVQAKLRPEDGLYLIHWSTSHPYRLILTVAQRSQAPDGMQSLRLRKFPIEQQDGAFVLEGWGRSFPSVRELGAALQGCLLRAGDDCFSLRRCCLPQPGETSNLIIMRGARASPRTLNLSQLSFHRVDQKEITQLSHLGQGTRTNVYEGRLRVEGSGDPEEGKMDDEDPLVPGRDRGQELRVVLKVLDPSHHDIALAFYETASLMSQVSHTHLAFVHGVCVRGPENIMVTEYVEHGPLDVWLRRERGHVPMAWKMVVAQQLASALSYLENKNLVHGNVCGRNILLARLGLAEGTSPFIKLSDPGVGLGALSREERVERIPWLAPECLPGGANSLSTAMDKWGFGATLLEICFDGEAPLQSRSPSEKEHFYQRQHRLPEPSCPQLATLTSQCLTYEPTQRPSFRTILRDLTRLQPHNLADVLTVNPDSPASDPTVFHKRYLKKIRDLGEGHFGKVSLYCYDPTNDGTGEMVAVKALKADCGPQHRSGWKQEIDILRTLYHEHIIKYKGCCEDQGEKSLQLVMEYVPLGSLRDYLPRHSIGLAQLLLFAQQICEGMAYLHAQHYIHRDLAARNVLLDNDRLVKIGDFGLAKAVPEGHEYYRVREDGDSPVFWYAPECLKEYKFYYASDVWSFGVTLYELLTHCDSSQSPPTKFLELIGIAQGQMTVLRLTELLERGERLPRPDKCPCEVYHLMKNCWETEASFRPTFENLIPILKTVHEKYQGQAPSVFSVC

| Structure (SMILES) | Ki [1] | Ki [2] | EC50 [3] | EC50 ([4]; Homo sapiens, PBMC, 20 min) | EC50 ([4]; 20 minutes) |
| --- | --- | --- | --- | --- | --- |
| CO[C@H]1CCN(c2ccn(-c3cc(-c4c(F)cccc4C#N)nc4c3C(=O)NC4)n2)C[C@@H]1O [I-210, 3-fluoro-2-(4-(3-((3S,4S)-3-hydroxy-4-methoxypiperidin-1-yl)-1H-pyrazol-1-yl)-5-oxo-6,7-dihydro-5H-pyrrolo[3,4-b]pyridin-2-yl)benzonitrile] | 0.1 to 10 nM | 10 to 100 nM | 30 to 100 nM | 100 to 2000 nM | – |
| N#Cc1cccc(F)c1-c1cc(-n2ccc(N3CCCC(C(=O)N4CCCC4)C3)n2)c2c(n1)CNC2=O (stereo not drawn) [I-152, 3-fluoro-2-(5-oxo-4-(3-(3-(pyrrolidine-1-carbonyl)piperidin-1-yl)-1H-pyrazol-1-yl)-6,7-dihydro-5H-pyrrolo[3,4-b]pyridin-2-yl)benzonitrile] | 0.1 to 10 nM | 0.1 to 10 nM | 100 to 2000 nM | > 2000 nM | – |
| N#Cc1cccc(F)c1-c1cc(-n2ccc(N3CC[C@@H](C#N)[C@H](O)C3)n2)c2c(n1)CNC2=O [I-217, (3S,4S)-1-(1-(2-(2-cyano-6-fluorophenyl)-5-oxo-6,7-dihydro-5H-pyrrolo[3,4-b]pyridin-4-yl)-1H-pyrazol-3-yl)-3-hydroxypiperidine-4-carbonitrile] | 0.1 to 10 nM | 0.1 to 10 nM | 30 to 100 nM | 100 to 2000 nM | – |
| C[C@@]1(O)CCN(c2ccn(-c3cc(-c4c(F)cccc4C#N)nc4c3C(=O)NC4)n2)C1 [I-92, (R)-3-fluoro-2-(4-(3-(3-hydroxy-3-methylpyrrolidin-1-yl)-1H-pyrazol-1-yl)-5-oxo-6,7-dihydro-5H-pyrrolo[3,4-b]pyridin-2-yl)benzonitrile] | 0.1 to 10 nM | 10 to 100 nM | 30 to 100 nM | 100 to 2000 nM | – |
| N#Cc1cccc(F)c1-c1cc(-n2ccc([C@H]3CCCO3)n2)c2c(n1)CNC2=O [I-103, (R)-3-fluoro-2-(5-oxo-4-(3-(tetrahydrofuran-2-yl)-1H-pyrazol-1-yl)-6,7-dihydro-5H-pyrrolo[3,4-b]pyridin-2-yl)benzonitrile] | 0.1 to 10 nM | 10 to 100 nM | 100 to 2000 nM | 100 to 2000 nM | – |
| N#Cc1cccc(F)c1-c1cc(-n2ccc(N3CC[C@H](O)C3)n2)c2c(n1)CNC2=O [I-79, (S)-3-fluoro-2-(4-(3-(3-hydroxypyrrolidin-1-yl)-1H-pyrazol-1-yl)-5-oxo-6,7-dihydro-5H-pyrrolo[3,4-b]pyridin-2-yl)benzonitrile] | 0.1 to 10 nM | 10 to 100 nM | 30 to 100 nM | 100 to 2000 nM | – |
| N#Cc1cccc(F)c1-c1cc(-n2ccc(N3CC[C@H](O)C3=O)n2)c2c(n1)CNC2=O [I-148, (S)-3-fluoro-2-(4-(3-(3-hydroxy-2-oxopyrrolidin-1-yl)-1H-pyrazol-1-yl)-5-oxo-6,7-dihydro-5H-pyrrolo[3,4-b]pyridin-2-yl)benzonitrile] | 10 to 100 nM | ≥ 1000 nM | > 2000 nM | > 2000 nM | – |
| N#Cc1cccc(F)c1-c1cc(-n2ccc(N3CCC[C@@](O)(C(F)(F)F)C3)n2)c2c(n1)CNC2=O [I-89, (S)-3-fluoro-2-(4-(3-(3-hydroxy-3-(trifluoromethyl)piperidin-1-yl)-1H-pyrazol-1-yl)-5-oxo-6,7-dihydro-5H-pyrrolo[3,4-b]pyridin-2-yl)benzonitrile] | 0.1 to 10 nM | 10 to 100 nM | 100 to 2000 nM | > 2000 nM | – |
| N#Cc1cccc(F)c1-c1cc(-n2ccc(N3CC[C@]4(CCNC4=O)C3)n2)c2c(n1)CNC2=O [I-165, (R)-3-fluoro-2-(5-oxo-4-(3-(6-oxo-2,7-diazaspiro[4.4]nonan-2-yl)-1H-pyrazol-1-yl)-6,7-dihydro-5H-pyrrolo[3,4-b]pyridin-2-yl)benzonitrile] | 0.1 to 10 nM | 0.1 to 10 nM | 100 to 2000 nM | 100 to 2000 nM | – |
| N#Cc1cccc(F)c1-c1cc(-n2ccc(N3CCNC(=O)CC3)n2)c2c(n1)CNC2=O [I-141, 3-fluoro-2-(5-oxo-4-(3-(5-oxo-1,4-diazepan-1-yl)-1H-pyrazol-1-yl)-6,7-dihydro-5H-pyrrolo[3,4-b]pyridin-2-yl)benzonitrile] | 0.009 to 0.1 nM | 0.1 to 10 nM | 100 to 2000 nM | 100 to 2000 nM | – |
| N#Cc1cccc(F)c1-c1cc(-n2ccc(N3CCC[C@@H](O)[C@@H](O)C3)n2)c2c(n1)CNC2=O [I-179, 2-(4-(3-((3S,4R)-3,4-dihydroxyazepan-1-yl)-1H-pyrazol-1-yl)-5-oxo-6,7-dihydro-5H-pyrrolo[3,4-b]pyridin-2-yl)-3-fluorobenzonitrile] | 0.1 to 10 nM | 10 to 100 nM | 30 to 100 nM | > 2000 nM | – |
| CO[C@@H]1CCN(c2ccn(-c3cc(-c4c(F)cccc4C#N)nc4c3C(=O)NC4)n2)C[C@]1(C)O [I-213, 3-fluoro-2-(4-(3-((3S,4R)-3-hydroxy-4-methoxy-3-methylpiperidin-1-yl)-1H-pyrazol-1-yl)-5-oxo-6,7-dihydro-5H-pyrrolo[3,4-b]pyridin-2-yl)benzonitrile] | 0.009 to 0.1 nM | 10 to 100 nM | 100 to 2000 nM | – | > 2000 nM |
| CN1CCO[C@@H]2CN(c3ccn(-c4cc(-c5c(F)cccc5C#N)nc5c4C(=O)NC5)n3)C[C@@H]21 [I-225, 3-fluoro-2-(4-(3-((4aS,7aR)-4-methylhexahydropyrrolo[3,4-b][1,4]oxazin-6 (2H)-yl)-1H-pyrazol-1-yl)-5-oxo-6,7-dihydro-5H-pyrrolo[3,4-b]pyridin-2-yl)benzonitrile] | 0.1 to 10 nM | 0.1 to 10 nM | 100 to 2000 nM | 100 to 2000 nM | – |
| [2H]C1([2H])C[C@@](O)(C([2H])([2H])[2H])C([2H])([2H])N1c1ccn(-c2cc(-c3c(F)cccc3C#N)nc3c2C(=O)NC3)n1 [I-183, (S)-3-fluoro-2-(4-(3-(3-hydroxy-3-(methyl-d3)pyrrolidin-1-yl-2,2,5,5-d4)-1H-pyrazol-1-yl)-5-oxo-6,7-dihydro-5H-pyrrolo[3,4-b]pyridin-2-yl)benzonitrile] | 0.1 to 10 nM | 0.1 to 10 nM | 30 to 100 nM | 100 to 2000 nM | – |
| CC1=C(c2ccn(-c3cc(-c4c(F)cccc4C#N)nc4c3C(=O)NC4)n2)CNC1=O [I-227, 3-fluoro-2-(4-(3-(4-methyl-5-oxo-2,5-dihydro-1H-pyrrol-3-yl)-1H-pyrazol-1-yl)-5-oxo-6,7-dihydro-5H-pyrrolo[3,4-b]pyridin-2-yl)benzonitrile] | 0.1 to 10 nM | 10 to 100 nM | 100 to 2000 nM | 100 to 2000 nM | – |
| N#Cc1cccc(F)c1-c1cc(-n2ccc(N3CCC[C@@H](CO)C3)n2)c2c(n1)CNC2=O [I-97, (R)-3-fluoro-2-(4-(3-(3-(hydroxymethyl)piperidin-1-yl)-1H-pyrazol-1-yl)-5-oxo-6,7-dihydro-5H-pyrrolo[3,4-b]pyridin-2-yl)benzonitrile] | 0.1 to 10 nM | 10 to 100 nM | 30 to 100 nM | 100 to 2000 nM | – |
| N#Cc1cccc(F)c1-c1cc(-n2ccc(N3CC[C@]4(C3)OC[C@H](O)CO4)n2)c2c(n1)CNC2=O [I-221, 3-fluoro-2-(4-(3-((5r,8r)-8-hydroxy-6,10-dioxa-2-azaspiro-[4.5]decan-2-yl)-1H-pyrazol-1-yl)-5-oxo-6,7-dihydro-5H-pyrrolo[3,4-b]pyridin-2-yl)benzonitrile] | 0.1 to 10 nM | 0.1 to 10 nM | 100 to 2000 nM | 100 to 2000 nM | – |
| CC1O[C@H]2CN(c3ccn(-c4cc(-c5c(F)cccc5C#N)nc5c4C(=O)NC5)n3)C[C@H]2O1 (stereo partly drawn) [I-161, 3-fluoro-2-(4-(3-((3aR,6aS)-2-methyltetrahydro-5H-[1,3]dioxolo-[4,5-c]pyrrol-5-yl)-1H-pyrazol-1-yl)-5-oxo-6,7-dihydro-5H-pyrrolo[3,4-b]pyridin-2-yl)benzonitrile] | 0.1 to 10 nM | 10 to 100 nM | 100 to 2000 nM | 100 to 2000 nM | – |
| N#Cc1cccc(F)c1-c1cc(-n2cc(F)c(N3CC[C@H](O)C3)n2)c2c(n1)CNC2=O [I-190, (S)-3-fluoro-2-(4-(4-fluoro-3-(3-hydroxypyrrolidin-1-yl)-1H-pyrazol-1-yl)-5-oxo-6,7-dihydro-5H-pyrrolo[3,4-b]pyridin-2-yl)benzonitrile] | 0.1 to 10 nM | 10 to 100 nM | 100 to 2000 nM | 100 to 2000 nM | – |
| C[C@@]1(O)CCCN(c2ccn(-c3cc(-c4c(F)cccc4C#N)nc4c3C(=O)NC4)n2)C1 [I-71, (R)-3-fluoro-2-(4-(3-(3-hydroxy-3-methylpiperidin-1-yl)-1H-pyrazol-1-yl)-5-oxo-6,7-dihydro-5H-pyrrolo[3,4-b]pyridin-2-yl)benzonitrile] | 0.009 to 0.1 nM | 10 to 100 nM | 30 to 100 nM | 100 to 2000 nM | – |
| CN1CCN(C2CCCN(c3ccn(-c4cc(-c5c(F)cccc5C#N)nc5c4C(=O)NC5)n3)C2)CC1 (stereo not drawn) [I-147, 3-fluoro-2-(4-(3-(3-(4-methylpiperazin-1-yl)piperidin-1-yl)-1H-pyrazol-1-yl)-5-oxo-6,7-dihydro-5H-pyrrolo[3,4-b]pyridin-2-yl)benzonitrile] | 0.1 to 10 nM | 10 to 100 nM | 100 to 2000 nM | 100 to 2000 nM | – |

— patent publication US10781204B2, “TYK2 inhibitors and uses thereof” (Nimbus Lakshmi, Inc., priority 2015, dated 2020)
